# Experiments:
# [1] = target: T1, Adrenergic receptor alpha-2 (Rattus norvegicus, UniProt P22086+P19328+P22909); assay: Inhibition of [3H]clonidine binding to the rat alpha-2-adrenoceptor; format: protein assay; design: Log Ki: unit not given here
# T1 sequence (P22086 whole entry): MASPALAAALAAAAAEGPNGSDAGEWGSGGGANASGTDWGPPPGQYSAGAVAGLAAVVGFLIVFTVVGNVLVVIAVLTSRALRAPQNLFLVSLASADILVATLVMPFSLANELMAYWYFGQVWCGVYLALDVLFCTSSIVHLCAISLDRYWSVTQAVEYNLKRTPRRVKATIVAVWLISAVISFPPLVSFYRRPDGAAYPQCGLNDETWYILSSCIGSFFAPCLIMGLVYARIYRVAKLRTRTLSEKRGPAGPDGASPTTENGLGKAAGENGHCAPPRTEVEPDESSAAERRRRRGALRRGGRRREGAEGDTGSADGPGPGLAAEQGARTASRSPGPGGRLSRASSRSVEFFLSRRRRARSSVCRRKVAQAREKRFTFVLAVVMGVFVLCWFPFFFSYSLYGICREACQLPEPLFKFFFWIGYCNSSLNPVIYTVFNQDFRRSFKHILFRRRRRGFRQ
# T1 sequence (P19328 whole entry): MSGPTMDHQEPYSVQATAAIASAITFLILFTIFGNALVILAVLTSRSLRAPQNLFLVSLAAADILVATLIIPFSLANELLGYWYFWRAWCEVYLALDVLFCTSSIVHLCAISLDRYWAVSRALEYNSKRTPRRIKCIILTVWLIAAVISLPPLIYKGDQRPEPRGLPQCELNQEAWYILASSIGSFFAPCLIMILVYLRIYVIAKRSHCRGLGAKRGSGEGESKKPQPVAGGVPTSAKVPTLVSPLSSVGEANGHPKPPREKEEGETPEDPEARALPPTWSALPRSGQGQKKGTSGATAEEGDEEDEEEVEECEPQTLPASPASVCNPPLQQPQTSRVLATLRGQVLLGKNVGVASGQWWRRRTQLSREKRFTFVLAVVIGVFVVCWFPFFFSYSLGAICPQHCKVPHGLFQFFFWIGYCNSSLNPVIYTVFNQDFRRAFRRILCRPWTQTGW
# T1 sequence (P22909 whole entry): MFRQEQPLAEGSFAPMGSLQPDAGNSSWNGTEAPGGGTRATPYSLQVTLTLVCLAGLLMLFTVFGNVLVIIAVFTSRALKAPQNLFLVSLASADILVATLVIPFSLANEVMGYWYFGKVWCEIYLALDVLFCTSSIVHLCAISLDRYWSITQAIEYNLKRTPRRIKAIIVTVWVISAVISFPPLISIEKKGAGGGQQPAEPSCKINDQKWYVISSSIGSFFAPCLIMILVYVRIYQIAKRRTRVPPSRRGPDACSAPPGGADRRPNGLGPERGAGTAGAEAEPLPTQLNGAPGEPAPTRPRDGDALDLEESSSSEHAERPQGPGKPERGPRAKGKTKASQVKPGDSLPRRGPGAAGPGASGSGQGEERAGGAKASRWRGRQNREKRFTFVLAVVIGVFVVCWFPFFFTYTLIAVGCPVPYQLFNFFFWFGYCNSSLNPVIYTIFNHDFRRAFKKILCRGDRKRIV
# [2] = target: T2, Phenylethanolamine N-methyltransferase (Bos taurus, UniProt P10938); assay: Inhibitory activity against bovine adrenal phenylethanolamine N-methyl-transferase (PNMT)
# T2 sequence (P10938 whole entry): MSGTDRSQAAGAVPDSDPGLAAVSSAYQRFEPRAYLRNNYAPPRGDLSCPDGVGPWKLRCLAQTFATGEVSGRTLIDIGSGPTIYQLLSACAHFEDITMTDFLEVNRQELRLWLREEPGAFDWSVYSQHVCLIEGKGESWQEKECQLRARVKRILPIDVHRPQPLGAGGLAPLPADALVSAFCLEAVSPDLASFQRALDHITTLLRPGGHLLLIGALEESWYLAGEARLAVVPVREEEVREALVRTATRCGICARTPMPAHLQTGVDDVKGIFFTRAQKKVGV
# [3] = Relative affinity for alpha-2-adrenoceptor and phenylethanolamine N-methyl-transferase (PNMT); design: reference not given here
Structure (SMILES),Log Ki [1],Ki [2] [µM],further results
C[C@@H]1Cc2ccccc2CN1,5.24,,
Oc1cccc2c1CCNC2,6.11,,
c1ccc(Cc2ccc3c(c2)CNCC3)cc1,5.33,61.7,
C[C@H]1Cc2ccc([N+](=O)[O-])cc2CN1,4.72,,
N#Cc1ccc2c(c1)CN[C@H](C(F)(F)F)C2,,,Selectivity [3]: 1.4
C[C@@H]1Cc2ccc([N+](=O)[O-])cc2CN1,4.28,,
CS(=O)(=O)c1ccc2c(c1)CNCCC2,3.82,7.76,
COc1ccc2c3c(ccc2c1)CCNC3,,14.1,
NS(=O)(=O)c1ccc2c(c1)CNC(CO)C2 (stereo unspecified),,,Selectivity [3]: 290
C=CCS(=O)(=O)c1ccc2c(c1)CNCC2,4.02,,
NS(=O)(=O)c1ccc2c(c1)CN[C@H](C(F)(F)F)C2,,,Selectivity [3]: 26; Ki [1]: 0.4 mM
N#Cc1ccc2c(c1)CNCC2,5.14,,
CS(=O)(=O)c1ccc2c(c1)CN[C@@H](C(F)(F)F)C2,,,Selectivity [3]: 190
O=[N+]([O-])c1ccc2c(c1)CNC(C(F)(F)F)C2 (stereo unspecified),,,Selectivity [3]: 750; Ki [1]: 1.5 mM
O=S(=O)(c1ccccc1)c1ccc2c(c1)CNCC2,4.67,,
c1ccc2c(c1)CNCCN2,5.58,,
CNS(=O)(=O)c1ccc2c(c1)CNCC2,3.88,,
COc1cccc2c1CNCC2,6.52,,
CSc1ccc2c(c1)CNCC2,6.39,0.617,
OC[C@@H]1Cc2ccc(Cl)c(Cl)c2CN1,,,Selectivity [3]: 2.1
Oc1cccc2c1CNCC2,6.14,603,
NC(=O)c1ccc2c(c1)CNCC2,4.64,,

Structure (SMILES),Log Ki [1],Ki [2] [µM],further results
Oc1ccc2c(c1)CCNC2,6,5.75,
C[C@H](N)c1ccccc1,3.92,,
FC(F)(F)C1Cc2ccc(Br)cc2CN1 (stereo unspecified),,,Selectivity [3]: > 1900; Ki [1]: > 1 mM
c1ccc2c(c1)CCCCNC2,4.81,,
C[C@@H](N)c1ccc(Cl)c(Cl)c1,4.39,32.4,
O=[N+]([O-])c1ccc2c(c1)CN[C@H](C(F)(F)F)C2,,,Selectivity [3]: 25
C[C@@H]1Cc2sc3ccccc3c2CN1,,,Selectivity [3]: 0.08
Ic1ccc2c(c1)CNCC2,6.66,,
NCc1cccc2ccccc12,5.79,,
CS(=O)(=O)c1ccc2c(c1)CN[C@H](C(F)(F)F)C2,,,Selectivity [3]: 22
Cc1ccc2c(c1)CNCC2,6.44,2.69,
N#Cc1ccc2c(c1)CN[C@@H](C(F)(F)F)C2,,,Selectivity [3]: 15
OC[C@H]1Cc2ccc(Cl)c(Cl)c2CN1,,,Selectivity [3]: 0.32
O=[N+]([O-])c1ccc2c(c1)CNCCCC2,4.08,4.57,
NS(=O)(=O)c1ccc2c(c1)CNCCC2,3.82,1.66,
FC(F)(F)[C@H]1Cc2ccc(Br)cc2CN1,,,Selectivity [3]: 0.83
O=[N+]([O-])c1ccc2c(c1)CN[C@@H](C(F)(F)F)C2,,,Selectivity [3]: 240
O=C(c1ccc2c(c1)CNCC2)C(F)(F)F,4.49,,
O=C(O)c1ccc2c(c1)CNCC2,3.33,,
Nc1ccc2c(c1)CNCCC2,3.96,24,
O=[N+]([O-])c1cc2c(c([N+](=O)[O-])c1)CCNC2,4.11,57.5,
Oc1cc2c(cc1O)CNCC2,6.32,3.89,

Structure (SMILES),Log Ki [1],Ki [2] [µM],further results
OCc1ccc2c(c1)CNCC2,5.64,,
Clc1ccc2c(c1Cl)CNCC2,7.66,,
Oc1ccc2c(c1)CNCC2,5.65,,
CN1CCc2ccccc2C1,6.62,50.1,
FC(F)(F)[C@@H]1Cc2ccc(Br)cc2CN1,,,Selectivity [3]: 2.6
O=[N+]([O-])c1ccc2c(c1)CNCCC2,4.18,0.389,
COC(=O)Nc1ccc2c(c1)CNCC2,5.04,186,
CC(=O)c1ccc2c(c1)CNCC2,5.21,,
O=S(=O)(c1ccc2c(c1)CNCC2)C(Cl)(Cl)Cl,4.47,1.26,
Clc1ccc2c(c1Cl)CNCCC2,5.39,,
NCc1ccc2c(c1)CNCC2,4.92,,
C[C@H]1Cc2sc3ccccc3c2CN1,,,Selectivity [3]: 4100; Ki [1]: 1.4 mM
C[C@@H](N)c1ccccc1,3.54,,
N#Cc1ccc2c(c1)CNC(C(F)(F)F)C2 (stereo unspecified),,,Selectivity [3]: 220; Ki [1]: 2.9 mM
CN1CCCCc2ccccc2C1,5.39,1150,
Brc1ccc2c(c1)CNCCC2,5.05,0.288,
Oc1ccc2c3c(ccc2c1)CCNC3,7.1,,
C[C@H]1Cc2ccc(Cl)c(Cl)c2CN1,6.37,0.912,
C[C@@H]1CCc2ccc(Cl)c(Cl)c2CN1,5.56,0.417,
O=[N+]([O-])c1cc2c(c([N+](=O)[O-])c1)CCCNC2,4.6,36.3,
CC1Cc2sc3ccccc3c2CN1 (stereo unspecified),,,Selectivity [3]: 1.3
OC[C@H]1Cc2ccccc2CN1,5.36,,

Structure (SMILES),Log Ki [1],Ki [2] [µM],further results
FC(F)(F)[C@H]1Cc2ccccc2CN1,,,Selectivity [3]: 0.05
COc1cccc2c1CCNC2,6.89,,
Brc1ccc2c(c1)CNCC2,,0.295,
CSc1ccc2c(c1)CNCCC2,4.92,1.05,
FC(F)(F)C1Cc2ccccc2CN1 (stereo unspecified),,,Selectivity [3]: 26; Ki [1]: 0.4 mM
Nc1ccc2c(c1)CNCC2,5.51,,
OC[C@@H]1Cc2ccccc2CN1,4.77,,
FC(F)(F)c1ccc2c(c1)CNCC2,5.89,0.182,
C[C@H]1CCc2ccc(Cl)c(Cl)c2CN1,5.36,5.75,
OCC1Cc2ccc(Cl)c(Cl)c2CN1 (stereo unspecified),,,Selectivity [3]: 0.39
CS(=O)(=O)c1ccc2c(c1)CNC(C(F)(F)F)C2 (stereo unspecified),,,Selectivity [3]: 110; Ki [1]: 3.9 mM
"c1ccc2c(c1)CCNC2 [1,2,3,4-TETRAHYDROISOQUINOLINE]",6.45,,
C[C@H](N)c1ccc(Cl)c(Cl)c1,4.44,5.01,
C[C@@H]1Cc2ccc(Cl)c(Cl)c2CN1,6.66,0.355,
COc1ccc(OC)c2c1CCNC2,6.25,1000,
C[C@H]1Cc2ccccc2CN1,6.31,,
c1ccc2c(c1)CCCNC2,4.97,,
COc1ccc2c(c1)CNCC2,6.33,,
NS(=O)(=O)c1ccc2c(c1)CN[C@@H](C(F)(F)F)C2,,,Selectivity [3]: 61
COC(=O)c1ccc2c(c1)CNCC2,5.34,,
O=C(c1ccccc1)c1ccc2c(c1)CNCC2,4.57,,

# From ChEMBL document CHEMBL1131937 (Bioorg Med Chem Lett, 1999)
